In patent US10251841B2, “Polymeric depots for localization of agent to biological sites” (TRUSTEES OF BOSTON UNIVERSITY, priority 2011, dated 2019):

Legend:
Test in all cases: Cell proliferation assay, MTT, 5 days
Details in all cases: media containing 10% FBS
[1] = tested on: Calu6 (human lung cancer); assay type: cell-based
Protocol: (§1) Melanoma B16 (murine), Calu 6 (human lung carcinoma), A549 (human lung carcinoma), LLC (murine Lewis Lung Carcinoma), NCI-H460 (human lung), MSTO-211H (human mesothelioma), MSTO-211H-Luc (luciferase transfected human mesothelioma), MCF7 (human breast), LMS05 (human sarcoma) were incubated (37° C., 5% CO2) with MEM (with 10% fetal bovine serum (FBS), 1% essential amino acids, and 1% Penicillin/Streptomyocin with L glutamine (Pen/Strep), F-12 HAM (with 10% FBS and 1% Pen/Strep), DMEM (with 10% FBS and 1% Pen/Strep) media, or DMEM (with 10% FBS and 1% GPS), with media changes once every three days. When not cultured, all cell lines were stored in RPMI freezing media at −80° C. (with 50% FBS, 40% RPMI and 10% dimethyl sulfoxide (DMSO)). Cell lines were trypsinized from the plates and seeded into 96 well plates at a concentration of 3000 cells per well. All cell lines were cultured for a period of at least seven days before being tested in cell uptake or proliferation assays etc.
(§2) Cell proliferation assays testing the effects of paclitaxel encapsulated within nanoparticles were performed using three tumor cell lines. Lewis Lung Carcinoma (LLC), Melanoma, and Calu6 (human lung cancer) cell lines were plated at 3,000 cells/well and when established, cultured in media with/without paclitaxel. […] At the end of 5 days, tumor cell proliferation was assessed via MTT analysis. […]

[2] = tested on: Lewis Lung Carcinoma (LLC); assay type: cell-based, murine
Protocol: as §1, §2

Melanoma = assay type: cell-based, murine
Protocol: as §1, §2

Measured: concentration that reliably inhibits growth

CC(=O)O[C@H]1C(=O)[C@@]2(C)[C@H]([C@H](OC(=O)c3ccccc3)[C@]3(O)C[C@H](OC(=O)[C@H](O)[C@@H](NC(=O)c4ccccc4)c4ccccc4)C(C)=C1C3(C)C)[C@]1(OC(C)=O)CO[C@@H]1C[C@@H]2O [paclitaxel]
1 to 10 ng/mL: [1] | [2] | Melanoma
